According to ChEMBL document CHEMBL1131797, “4-hydroxy-5,6-dihydro-2H-pyran-2-ones.3. Bicyclic and hetero-aromatic ring systems as 3-position scaffolds to bind to S1' and S2' of the HIV-1 protease enzyme” (Bioorg Med Chem Lett, 1999):

Tests used:
CCRF-CEM = test: Antiviral activity was evaluated against HIV-infected CEM cells; format: functional, cell-based; settings: Homo sapiens
[1] = biological target: T1, Human immunodeficiency virus type 1 protease (Human immunodeficiency virus 1, UniProt Q72874); test: Inhibitory concentration against human immunodeficiency virus type 1(HIV-1) protease at pH 4.7
[2] = biological target: T1, Human immunodeficiency virus type 1 protease; test: Inhibitory activity was evaluated against human immunodeficiency virus type 1(HIV-1) protease at pH 6.2
[3] = biological target: T1, Human immunodeficiency virus type 1 protease; test: Inhibitory activity was evaluated against human immunodeficiency virus type 1(HIV-1) protease at pH 4.7

Structure (SMILES): CC(C)(C)n1c(SC2=C(O)OC(CCc3ccccc3)(c3ccccc3)CC2=O)nc2ccccc21 (configuration not stated)
- EC50 (CCRF-CEM): 61 µM
- IC50 [1]: 505 nM

Structure (SMILES): O=C1CC(CCc2ccccc2)(c2ccccc2)OC(O)=C1Sc1cc2ccccc2s1 (configuration not stated)
- EC50 (CCRF-CEM): > 100 µM
- IC50 [1]: 363 nM

Structure (SMILES): Cc1cc(SC2=C(O)O[C@](CCc3ccc(O)cc3)(C(C)C)CC2=O)c(C(C)(C)C)cc1CO
- EC50 (CCRF-CEM): 0.5 µM
- IC50 [2]: 1 nM

Structure (SMILES): CC(C)(C)c1cc2c(cc1SC1=C(O)OC(CCc3ccccc3)(c3ccccc3)CC1=O)CCC2 (configuration not stated)
- EC50 (CCRF-CEM): 22 µM
- IC50 [2]: 130 nM
- IC50 [1]: 9 nM

Structure (SMILES): CC(C)(C)c1c(SC2=C(O)OC(CCc3ccccc3)(c3ccccc3)CC2=O)oc2ccccc12 (configuration not stated)
- EC50 (CCRF-CEM): 31 µM
- IC50 [2]: 210 nM
- IC50 [1]: 11 nM

Structure (SMILES): CCc1c(SC2=C(O)OC(CCc3ccccc3)(c3ccccc3)CC2=O)sc2ccccc12 (configuration not stated)
- EC50 (CCRF-CEM): > 65 µM
- IC50 [1]: 28 nM

Structure (SMILES): CC(C)(C)c1cc2c(cc1SC1=C(O)OC(CCc3ccccc3)(c3ccccc3)CC1=O)CCCC2 (configuration not stated)
- EC50 (CCRF-CEM): 33 µM
- IC50 [1]: 28 nM

Structure (SMILES): Cc1c(SC2=C(O)OC(CCc3ccccc3)(c3ccccc3)CC2=O)sc2ccccc12 (configuration not stated)
- EC50 (CCRF-CEM): > 100 µM
- IC50 [1]: 74 nM

Structure (SMILES): CC(C)(C)c1oc2ccccc2c1SC1=C(O)OC(CCc2ccccc2)(c2ccccc2)CC1=O (configuration not stated)
- EC50 (CCRF-CEM): 10 µM
- IC50 [2]: 211 nM
- IC50 [1]: 18 nM

Structure (SMILES): O=C1CC(CCc2ccccc2)(c2ccccc2)OC(O)=C1Sc1cccs1 (configuration not stated)
- EC50 (CCRF-CEM): > 73 µM
- IC50 [1]: 290 nM

Structure (SMILES): Cc1ccsc1SC1=C(O)OC(CCc2ccccc2)(c2ccccc2)CC1=O (configuration not stated)
- EC50 (CCRF-CEM): > 100 µM
- IC50 [1]: 195 nM

Structure (SMILES): CC(C)[C@]1(CCc2ccc(O)cc2)CC(=O)C(Sc2sc3ccccc3c2C(C)(C)C)=C(O)O1
- EC50 (CCRF-CEM): 1 µM
- IC50 [2]: < 1 nM
- Ki [3]: < 0.1 nM

Structure (SMILES): CC(C)(C)c1c(SC2=C(O)OC(CCc3ccccc3)(c3ccccc3)CC2=O)sc2ccccc12 (configuration not stated)
- EC50 (CCRF-CEM): > 66 µM
- IC50 [2]: 17 nM
- IC50 [1]: 7 nM

Structure (SMILES): Cc1ccc(C(C)(C)C)c(SC2=C(O)OC(CCc3ccccc3)(c3ccccc3)CC2=O)c1 (configuration not stated)
- EC50 (CCRF-CEM): 46 µM
